Source: the NIST ThermoML archive (doi:10.1016/j.fluid.2011.09.037)
Numbers after ± are expanded uncertainties.

Experiment: osmotic coefficient (dimensionless); mn = molality of the nth substance listed, in mol/kg
Settings: 323.15 K, 101 kPa, Liquid, vapor pressure osmometer

CCCCO [butan-1-ol] + CCCCCC[n+]1ccn(C)c1.O=S(=O)([N-]S(=O)(=O)C(F)(F)F)C(F)(F)F
Settings	osmotic coefficient
m1 = 0.0466	0.746 ± 0.014
m1 = 0.0832	0.604 ± 0.017
m1 = 0.1034	0.574 ± 0.018
m1 = 0.1973	0.461 ± 0.022
m1 = 0.2989	0.411 ± 0.023
m1 = 0.3965	0.362 ± 0.025
m1 = 0.4907	0.343 ± 0.025
m1 = 0.6881	0.295 ± 0.027
m1 = 0.9952	0.245 ± 0.029
m1 = 1.304	0.212 ± 0.031
m1 = 1.685	0.2 ± 0.031
m1 = 2.109	0.18 ± 0.032
m1 = 2.479	0.172 ± 0.032
m1 = 2.947	0.161 ± 0.032
m1 = 3.291	0.162 ± 0.032

CCC(C)O (configuration not stated) [butan-2-ol] + CCCCCC[n+]1ccn(C)c1.O=S(=O)([N-]S(=O)(=O)C(F)(F)F)C(F)(F)F
Settings	osmotic coefficient
m1 = 0.0478	0.834 ± 0.012
m1 = 0.076	0.769 ± 0.013
m1 = 0.1019	0.659 ± 0.016
m1 = 0.2141	0.532 ± 0.019
m1 = 0.3112	0.443 ± 0.022
m1 = 0.4257	0.403 ± 0.023
m1 = 0.5354	0.369 ± 0.024
m1 = 0.72	0.324 ± 0.026
m1 = 1.008	0.285 ± 0.028
m1 = 1.311	0.251 ± 0.029
m1 = 1.722	0.231 ± 0.03
m1 = 2.107	0.219 ± 0.03
m1 = 2.477	0.214 ± 0.03
m1 = 2.87	0.195 ± 0.031

CCCCCO [pentan-1-ol] + CCCCCC[n+]1ccn(C)c1.O=S(=O)([N-]S(=O)(=O)C(F)(F)F)C(F)(F)F
Settings	osmotic coefficient
m1 = 0.0502	0.467 ± 0.021
m1 = 0.0781	0.411 ± 0.023
m1 = 0.1123	0.372 ± 0.024
m1 = 0.1977	0.313 ± 0.027
m1 = 0.3009	0.267 ± 0.028
m1 = 0.4054	0.24 ± 0.029
m1 = 0.4903	0.214 ± 0.03
m1 = 0.8026	0.178 ± 0.032
m1 = 1.11	0.163 ± 0.032
m1 = 1.368	0.149 ± 0.033
m1 = 1.723	0.12 ± 0.034
m1 = 2.211	0.095 ± 0.035
m1 = 2.657	0.096 ± 0.035
m1 = 3.231	0.091 ± 0.035

CCCO [propan-1-ol] + CCCCCC[n+]1ccn(C)c1.O=S(=O)([N-]S(=O)(=O)C(F)(F)F)C(F)(F)F
Settings	osmotic coefficient
m1 = 0.0281	0.906 ± 0.011
m1 = 0.0539	0.866 ± 0.011
m1 = 0.081	0.797 ± 0.013
m1 = 0.1046	0.716 ± 0.015
m1 = 0.2004	0.621 ± 0.017
m1 = 0.3018	0.523 ± 0.02
m1 = 0.4154	0.46 ± 0.022
m1 = 0.519	0.445 ± 0.022
m1 = 0.8326	0.386 ± 0.024
m1 = 1.14	0.342 ± 0.025
m1 = 1.432	0.316 ± 0.026
m1 = 1.742	0.306 ± 0.027
m1 = 2.247	0.288 ± 0.028
m1 = 2.739	0.265 ± 0.028
m1 = 3.188	0.247 ± 0.029

CC(C)O [propan-2-ol] + CCCCCC[n+]1ccn(C)c1.O=S(=O)([N-]S(=O)(=O)C(F)(F)F)C(F)(F)F
Settings	osmotic coefficient
m1 = 0.0549	0.902 ± 0.011
m1 = 0.0805	0.876 ± 0.011
m1 = 0.0992	0.841 ± 0.012
m1 = 0.2037	0.678 ± 0.015
m1 = 0.3092	0.572 ± 0.018
m1 = 0.4087	0.524 ± 0.02
m1 = 0.5171	0.485 ± 0.021
m1 = 0.8189	0.429 ± 0.023
m1 = 1.111	0.387 ± 0.024
m1 = 1.405	0.355 ± 0.025
m1 = 1.712	0.321 ± 0.026
m1 = 2.193	0.314 ± 0.027
m1 = 2.655	0.304 ± 0.027
m1 = 3.207	0.294 ± 0.027
